Several values for one entry are separate records, joined by “and”; a condition that tells them apart may be missing. Equal values may be shown once.
Columns and labels:
SfurOBP11 = SfurOBP11 (Sogatella furcifera, UniProt V5T6E3); test: biochemical; assay type: binding
How it was run: (§1)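 In 50 mM Tris-HCl pH 7.4, odorants displace 1-NPN (2.0 µM) from 2.0 µM protein. Emission at 390–490 nm under 337 nm excitation is measured 2 min after competitor addition, in triplicate. Ki is obtained from IC50 and the 1-NPN dissociation constant.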

SfurOBP1 = SfurOBP1 (Sogatella furcifera, UniProt V5T8N5); test: biochemical; assay type: binding; details: for Fluorescence competitive binding assay, fluorescence intensity: OBP1, three replicate columns
Sequence of SfurOBP1 (V5T8N5 entry or part of it): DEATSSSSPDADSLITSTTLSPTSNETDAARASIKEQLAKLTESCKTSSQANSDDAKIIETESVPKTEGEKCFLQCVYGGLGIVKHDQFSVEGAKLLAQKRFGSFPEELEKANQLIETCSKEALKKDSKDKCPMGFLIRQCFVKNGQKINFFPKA
How it was run: as §1

SfurOBP2 = SfurOBP2 (Sogatella furcifera, UniProt V5T759); test: biochemical; assay type: binding
Sequence of SfurOBP2 (V5T759 entry or part of it): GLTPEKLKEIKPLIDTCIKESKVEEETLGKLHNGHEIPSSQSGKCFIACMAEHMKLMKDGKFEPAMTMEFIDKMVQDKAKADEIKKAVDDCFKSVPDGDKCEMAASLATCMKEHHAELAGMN
How it was run: as §1

SfurOBP3 = SfurOBP3 (Sogatella furcifera, UniProt V5T818); test: biochemical; assay type: binding; details: for Fluorescence competitive binding assay, fluorescence intensity: OBP3, three replicate columns;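 on Fluorescence competitive binding assay, fluorescence intensity: competitor odorant at 2 to 20 µM with protein and 1-NPN both 2.0 µM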
Sequence of SfurOBP3 (V5T818 entry or part of it): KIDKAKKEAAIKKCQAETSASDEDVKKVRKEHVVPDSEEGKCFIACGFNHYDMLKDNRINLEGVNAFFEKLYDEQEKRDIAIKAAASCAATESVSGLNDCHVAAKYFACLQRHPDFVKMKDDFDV
How it was run: as §1

S. furcifera adults = test: Y-tube olfactometer behavioral trials; assay type: in vivo, Sogatella furcifera; details: odorant 50 µL/L vs hexane; adults
How it was run: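 Single S. furcifera adults (2 days post-emergence, starved 0.5 h) chose between odorant (100 µL of 50 µL/L on filter paper) and hexane control in a glass Y-tube, charcoal-filtered humidified air 300 mL/min per arm, 25 ± 1 °C, 50% RH. Choice scored if insect passed half an arm and stayed >1 min within 10 min; 45 insects per compound, chi-squared test.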
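Wherever Fluorescence competitive binding assay, fluorescence intensity is given: competitor odorant at 2 to 20 µM with protein and 1-NPN both 2.0 µM.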

Sequence of SfurOBP11 (V5T6E3 entry or part of it): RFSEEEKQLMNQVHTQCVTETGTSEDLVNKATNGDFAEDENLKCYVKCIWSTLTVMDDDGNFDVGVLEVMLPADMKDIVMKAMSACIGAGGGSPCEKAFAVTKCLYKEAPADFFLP

Structure (SMILES): COC(=O)c1ccccc1 [benzoic acid methylester]
- IC50 (SfurOBP11): > 20 µM
- Fluorescence intensity, fluorescence competitive binding assay, OBP11 (SfurOBP11; ligand concentration 2, replicate 1): 27311
- Fluorescence intensity, fluorescence competitive binding assay, OBP11 (SfurOBP11; ligand concentration 2, replicate 2): 29257
- Fluorescence intensity, fluorescence competitive binding assay, OBP11 (SfurOBP11; ligand concentration 2, replicate 3): 28341
- Fluorescence intensity, fluorescence competitive binding assay, OBP11 (SfurOBP11; ligand concentration 4, replicate 1): 28195
- Fluorescence intensity, fluorescence competitive binding assay, OBP11 (SfurOBP11; ligand concentration 4, replicate 2): 27454
- Fluorescence intensity, fluorescence competitive binding assay, OBP11 (SfurOBP11; ligand concentration 4, replicate 3): 28935
- Fluorescence intensity, fluorescence competitive binding assay, OBP11 (SfurOBP11; ligand concentration 6, replicate 1): 25204
- Fluorescence intensity, fluorescence competitive binding assay, OBP11 (SfurOBP11; ligand concentration 6, replicate 2): 26496
- Fluorescence intensity, fluorescence competitive binding assay, OBP11 (SfurOBP11; ligand concentration 6, replicate 3): 27787
- Fluorescence intensity, fluorescence competitive binding assay, OBP11 (SfurOBP11; ligand concentration 8, replicate 1): 24731
- Fluorescence intensity, fluorescence competitive binding assay, OBP11 (SfurOBP11; ligand concentration 8, replicate 2): 24972
- Fluorescence intensity, fluorescence competitive binding assay, OBP11 (SfurOBP11; ligand concentration 8, replicate 3): 24489
- Fluorescence intensity, fluorescence competitive binding assay, OBP11 (SfurOBP11; ligand concentration 10, replicate 1): 24285
- Fluorescence intensity, fluorescence competitive binding assay, OBP11 (SfurOBP11; ligand concentration 10, replicate 2): 24217
- Fluorescence intensity, fluorescence competitive binding assay, OBP11 (SfurOBP11; ligand concentration 10, replicate 3): 24352
- Fluorescence intensity, fluorescence competitive binding assay, OBP11 (SfurOBP11; ligand concentration 12, replicate 1): 23537
- Fluorescence intensity, fluorescence competitive binding assay, OBP11 (SfurOBP11; ligand concentration 12, replicate 2): 23314
- Fluorescence intensity, fluorescence competitive binding assay, OBP11 (SfurOBP11; ligand concentration 12, replicate 3): 23760
- Fluorescence intensity, fluorescence competitive binding assay, OBP11 (SfurOBP11; ligand concentration 14, replicate 1): 19900
- Fluorescence intensity, fluorescence competitive binding assay, OBP11 (SfurOBP11; ligand concentration 14, replicate 2): 22587
- Fluorescence intensity, fluorescence competitive binding assay, OBP11 (SfurOBP11; ligand concentration 14, replicate 3): 21306
- Fluorescence intensity, fluorescence competitive binding assay, OBP11 (SfurOBP11; ligand concentration 16, replicate 1): 18401
- Fluorescence intensity, fluorescence competitive binding assay, OBP11 (SfurOBP11; ligand concentration 16, replicate 2): 18544
- Fluorescence intensity, fluorescence competitive binding assay, OBP11 (SfurOBP11; ligand concentration 16, replicate 3): 17724
- Fluorescence intensity, fluorescence competitive binding assay, OBP11 (SfurOBP11; ligand concentration 18, replicate 1): 22003
- Fluorescence intensity, fluorescence competitive binding assay, OBP11 (SfurOBP11; ligand concentration 18, replicate 2): 20975
- Fluorescence intensity, fluorescence competitive binding assay, OBP11 (SfurOBP11; ligand concentration 18, replicate 3): 22765
- Fluorescence intensity, fluorescence competitive binding assay, OBP11 (SfurOBP11; ligand concentration 20, replicate 1): 21640
- Fluorescence intensity, fluorescence competitive binding assay, OBP11 (SfurOBP11; ligand concentration 20, replicate 2): 22200
- Fluorescence intensity, fluorescence competitive binding assay, OBP11 (SfurOBP11; ligand concentration 20, replicate 3): 21920
- IC50 (SfurOBP1): > 20 µM
- Fluorescence competitive binding assay, fluorescence intensity (SfurOBP1; ligand concentration 2 (μM)): 5064 and 4951 and 5158
- Fluorescence competitive binding assay, fluorescence intensity (SfurOBP1; ligand concentration 4 (μM)): 5979 and 6427 and 5531
- Fluorescence competitive binding assay, fluorescence intensity (SfurOBP1; ligand concentration 6 (μM)): 9023 and 8678 and 7700
- Fluorescence competitive binding assay, fluorescence intensity (SfurOBP1; ligand concentration 8 (μM)): 8709 and 6440 and 6910
- Fluorescence competitive binding assay, fluorescence intensity (SfurOBP1; ligand concentration 10 (μM)): 7708 and 6333 and 7083
- Fluorescence competitive binding assay, fluorescence intensity (SfurOBP1; ligand concentration 12 (μM)): 5895 and 6787 and 5523
- Fluorescence competitive binding assay, fluorescence intensity (SfurOBP1; ligand concentration 14 (μM)): 8915 and 6017 and 4981
- Fluorescence competitive binding assay, fluorescence intensity (SfurOBP1; ligand concentration 16 (μM)): 7008 and 5157 and 5392
- Fluorescence competitive binding assay, fluorescence intensity (SfurOBP1; ligand concentration 18 (μM)): 7131 and 8076 and 6232
- Fluorescence competitive binding assay, fluorescence intensity (SfurOBP1; ligand concentration 20 (μM)): 6422 and 6546 and 6873
- IC50 (SfurOBP2): > 20 µM
- Fluorescence competitive binding assay, OBP2 (raw fluorescence reading) (SfurOBP2; ligand concentration 2 (unit not given), replicate column 1 of 3): 20302
- Fluorescence competitive binding assay, OBP2 (raw fluorescence reading) (SfurOBP2; ligand concentration 2 (unit not given), replicate column 2 of 3): 19349
- Fluorescence competitive binding assay, OBP2 (raw fluorescence reading) (SfurOBP2; ligand concentration 2 (unit not given), replicate column 3 of 3): 19856
- Fluorescence competitive binding assay, OBP2 (raw fluorescence reading) (SfurOBP2; ligand concentration 4 (unit not given), replicate column 1 of 3): 20922
- Fluorescence competitive binding assay, OBP2 (raw fluorescence reading) (SfurOBP2; ligand concentration 4 (unit not given), replicate column 2 of 3): 22649
- Fluorescence competitive binding assay, OBP2 (raw fluorescence reading) (SfurOBP2; ligand concentration 4 (unit not given), replicate column 3 of 3): 23660
- Fluorescence competitive binding assay, OBP2 (raw fluorescence reading) (SfurOBP2; ligand concentration 6 (unit not given), replicate column 1 of 3): 19982
- Fluorescence competitive binding assay, OBP2 (raw fluorescence reading) (SfurOBP2; ligand concentration 6 (unit not given), replicate column 2 of 3): 19598
- Fluorescence competitive binding assay, OBP2 (raw fluorescence reading) (SfurOBP2; ligand concentration 6 (unit not given), replicate column 3 of 3): 20363
- Fluorescence competitive binding assay, OBP2 (raw fluorescence reading) (SfurOBP2; ligand concentration 8 (unit not given), replicate column 1 of 3): 18016
- Fluorescence competitive binding assay, OBP2 (raw fluorescence reading) (SfurOBP2; ligand concentration 8 (unit not given), replicate column 2 of 3): 17876
- Fluorescence competitive binding assay, OBP2 (raw fluorescence reading) (SfurOBP2; ligand concentration 8 (unit not given), replicate column 3 of 3): 18155
- Fluorescence competitive binding assay, OBP2 (raw fluorescence reading) (SfurOBP2; ligand concentration 10 (unit not given), replicate column 1 of 3): 17866
- Fluorescence competitive binding assay, OBP2 (raw fluorescence reading) (SfurOBP2; ligand concentration 10 (unit not given), replicate column 2 of 3): 16967
- Fluorescence competitive binding assay, OBP2 (raw fluorescence reading) (SfurOBP2; ligand concentration 10 (unit not given), replicate column 3 of 3): 17417
- Fluorescence competitive binding assay, OBP2 (raw fluorescence reading) (SfurOBP2; ligand concentration 12 (unit not given), replicate column 1 of 3): 14659
- Fluorescence competitive binding assay, OBP2 (raw fluorescence reading) (SfurOBP2; ligand concentration 12 (unit not given), replicate column 2 of 3): 16003
- Fluorescence competitive binding assay, OBP2 (raw fluorescence reading) (SfurOBP2; ligand concentration 12 (unit not given), replicate column 3 of 3): 15331
- Fluorescence competitive binding assay, OBP2 (raw fluorescence reading) (SfurOBP2; ligand concentration 14 (unit not given), replicate column 1 of 3): 15808
- Fluorescence competitive binding assay, OBP2 (raw fluorescence reading) (SfurOBP2; ligand concentration 14 (unit not given), replicate column 2 of 3): 14578
- Fluorescence competitive binding assay, OBP2 (raw fluorescence reading) (SfurOBP2; ligand concentration 14 (unit not given), replicate column 3 of 3): 16066
- Fluorescence competitive binding assay, OBP2 (raw fluorescence reading) (SfurOBP2; ligand concentration 16 (unit not given), replicate column 1 of 3): 13829
- Fluorescence competitive binding assay, OBP2 (raw fluorescence reading) (SfurOBP2; ligand concentration 16 (unit not given), replicate column 2 of 3): 13659
- Fluorescence competitive binding assay, OBP2 (raw fluorescence reading) (SfurOBP2; ligand concentration 16 (unit not given), replicate column 3 of 3): 13740
- Fluorescence competitive binding assay, OBP2 (raw fluorescence reading) (SfurOBP2; ligand concentration 18 (unit not given), replicate column 1 of 3): 13696
- Fluorescence competitive binding assay, OBP2 (raw fluorescence reading) (SfurOBP2; ligand concentration 18 (unit not given), replicate column 2 of 3): 13929
- Fluorescence competitive binding assay, OBP2 (raw fluorescence reading) (SfurOBP2; ligand concentration 18 (unit not given), replicate column 3 of 3): 14161
- Fluorescence competitive binding assay, OBP2 (raw fluorescence reading) (SfurOBP2; ligand concentration 20 (unit not given), replicate column 1 of 3): 14205
- Fluorescence competitive binding assay, OBP2 (raw fluorescence reading) (SfurOBP2; ligand concentration 20 (unit not given), replicate column 2 of 3): 14645
- Fluorescence competitive binding assay, OBP2 (raw fluorescence reading) (SfurOBP2; ligand concentration 20 (unit not given), replicate column 3 of 3): 13761
- IC50 (SfurOBP3): > 20 µM
- Fluorescence competitive binding assay, fluorescence intensity (SfurOBP3; ligand concentration 2): 65046 and 56813 and 65508
- Fluorescence competitive binding assay, fluorescence intensity (SfurOBP3; ligand concentration 4): 67380 and 59779 and 65465
- Fluorescence competitive binding assay, fluorescence intensity (SfurOBP3; ligand concentration 6): 60647 and 61139 and 65169
- Fluorescence competitive binding assay, fluorescence intensity (SfurOBP3; ligand concentration 8): 62761 and 59088 and 65223
- Fluorescence competitive binding assay, fluorescence intensity (SfurOBP3; ligand concentration 10): 58066 and 60267 and 58488
- Fluorescence competitive binding assay, fluorescence intensity (SfurOBP3; ligand concentration 12): 53979 and 46844 and 52174
- Fluorescence competitive binding assay, fluorescence intensity (SfurOBP3; ligand concentration 14): 52567 and 46884 and 49119
- Fluorescence competitive binding assay, fluorescence intensity (SfurOBP3; ligand concentration 16): 43090 and 45767 and 42573
- Fluorescence competitive binding assay, fluorescence intensity (SfurOBP3; ligand concentration 18): 48410 and 52387 and 52599
- Fluorescence competitive binding assay, fluorescence intensity (SfurOBP3; ligand concentration 20): 47608 and 41929 and 45047
- number of insects choosing hexane arm (S. furcifera adults): 10
- number of insects choosing volatilies arm (S. furcifera adults): 9
- number of insects failed (no choice) (S. furcifera adults): 20
